The values below come from US9409882B2, “Pyridine derivatives” (Hoffmann-La Roche Inc., priority 2012, dated 2016).

SMILES strings stand for the structures.

One test deals with human Cat L (Homo sapiens (Human), UniProt P07711). Description: Cathepsin enzyme inhibition assay (fluorogenic peptide substrate), human Cat L. Format: biochemical. As to conditions: human Cat L 1 nM, substrate Z-Val-Val-Arg-AMC 20 μM, pH 6.5. The method, then: (§1) Cathepsin Enzyme Inhibition Assay
(§2) Enzyme activity is measured by observing the increase in fluorescence intensity caused by cleavage of a peptide substrate containing a fluorophore whose emission is quenched in the intact peptide.
(§3) Assay buffer: 100 mM potassium phosphate pH 6.5, EDTA-Na 5 mM, Triton X-100 0.001%, DTT 5 mM.
(§4) Enzymes (all at 1 nM): human and mouse Cathepsin S, Cat K, Cat B, Cat L.
(§5) Substrate (20 μM): Z-Val-Val-Arg-AMC, except for Cat K which uses Z-Leu-Arg-AMC (both from Bachem).
(§6) AMC=7-Amino-4-Methyl-Coumarin.
(§7) Excitation 360 nm, Emission 465 nm.
(§8) Enzyme is added to the substance dilutions in 96-well microtitre plates and the reaction is started with substrate. […] IC50 are calculated by standard methods.
(§9) Inhibition of human Cat S, mouse Cat S, human Cat K, human Cat B, human Cat L and mouse Cat L have been measured separately.

In another test the target is human Cathepsin S (Homo sapiens (Human), UniProt P25774). The test can be described thus: Cathepsin enzyme inhibition assay (fluorogenic peptide substrate), human Cat S. Format: biochemical. As to conditions: human Cat S 1 nM, substrate Z-Val-Val-Arg-AMC 20 μM, pH 6.5. The procedure: as §1, §2, §3, §4, §5, §6, §7, §8, §9
Sequence of human Cathepsin S (P25774 115-331): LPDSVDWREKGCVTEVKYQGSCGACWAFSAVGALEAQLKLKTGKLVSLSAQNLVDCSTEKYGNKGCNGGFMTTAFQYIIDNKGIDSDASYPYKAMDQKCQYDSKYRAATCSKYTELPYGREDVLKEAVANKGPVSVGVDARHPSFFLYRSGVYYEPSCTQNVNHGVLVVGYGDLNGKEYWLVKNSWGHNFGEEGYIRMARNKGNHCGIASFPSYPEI

Sequence of human Cat L (P07711 114-333): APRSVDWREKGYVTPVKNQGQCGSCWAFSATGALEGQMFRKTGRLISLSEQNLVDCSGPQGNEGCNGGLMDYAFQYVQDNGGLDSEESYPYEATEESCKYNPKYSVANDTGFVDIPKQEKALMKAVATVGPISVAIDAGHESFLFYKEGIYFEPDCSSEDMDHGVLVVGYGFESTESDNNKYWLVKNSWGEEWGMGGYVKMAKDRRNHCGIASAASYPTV

Regarding `N#CC1(NC(=O)[C@@H]2C[C@@H](S(=O)(=O)c3ccccc3Cl)CN2C(=O)C2(c3ncc(Cl)cc3F)CC2)CC1` [Example 5, (2S,4R)-4-(2-Chloro-benzenesulfonyl)-1-[1-(5-chloro-3-fluoro-pyridin-2-yl)-cyclopropanecarbonyl]-pyrrolidine-2-carboxylic acid (1-cyano-cyclopropyl)-amide], the IC50 on human Cat L came out at 12.9 nM; at human Cathepsin S it was 0.398 nM.

Regarding `Cc1ncccc1-c1ccc(S(=O)(=O)[C@@H]2C[C@@H](C(=O)NC3(C#N)CC3)N(C(=O)C3(c4ncc(I)cc4F)CC3)C2)c(Cl)c1` [Example 36, (2S,4R)-4-[2-Chloro-4-(2-methyl-pyridin-3-yl)-benzenesulfonyl]-1-[1-(3-fluoro-5-iodo-pyridin-2-yl)-cyclopropanecarbonyl]-pyrrolidine-2-carboxylic acid (1-cyano-cyclopropyl)-amide], the IC50 came out at 9.8 nM at human Cat L and 0.382 nM against human Cathepsin S.

With `N#CC1(NC(=O)[C@@H]2C[C@@H](Sc3ncccc3C(F)(F)F)CN2C(=O)C2(c3ncc(Cl)cc3F)CC2)CC1` [Example 21, (2S,4R)-1-[1-(5-Chloro-3-fluoro-pyridin-2-yl)-cyclopropanecarbonyl]-4-(3-trifluoromethyl-pyridin-2-ylsulfanyl)-pyrrolidine-2-carboxylic acid (1-cyano-cyclopropyl)-amide], the half-maximal inhibitory concentration (IC50) against human Cat L was determined as 10000 nM; against human Cathepsin S, 275 nM.

For the molecule `N#CC1(NC(=O)[C@@H]2C[C@@H](S(=O)(=O)c3ccccc3F)CN2C(=O)C2(c3ncc(I)cc3F)CC2)CC1` [Example 41, (2S,4R)-4-(2-Fluoro-benzenesulfonyl)-1-[1-(3-fluoro-5-iodo-pyridin-2-yl)-cyclopropanecarbonyl]-pyrrolidine-2-carboxylic acid (1-cyano-cyclopropyl)-amide], the IC50 on human Cat L stood at 3 nM; against human Cathepsin S, 0.6 nM.

For `Cc1ncccc1-c1ccc(S(=O)(=O)[C@@H]2C[C@@H](C(=O)NC3(C#N)CC3)N(C(=O)C3(c4ncc(Cl)cc4Cl)CC3)C2)c(Cl)c1` [Example 37, (2S,4R)-4-[2-Chloro-4-(2-methyl-pyridin-3-yl)-benzenesulfonyl]-1-[1-(3,5-dichloro-pyridin-2-yl)-cyclopropanecarbonyl]-pyrrolidine-2-carboxylic acid (1-cyano-cyclopropyl)-amide], the IC50 is 72.2 nM against human Cat L and 0.779 nM on human Cathepsin S.

With `N#CC1(NC(=O)[C@@H]2C[C@@H](S(=O)(=O)c3ccc(C(F)(F)F)cn3)CN2C(=O)C2(c3ncc(Cl)cc3F)CC2)CC1` [Example 24, (2S,4R)-1-[1-(5-Chloro-3-fluoro-pyridin-2-yl)-cyclopropanecarbonyl]-4-(5-trifluoromethyl-pyridine-2-sulfonyl)-pyrrolidine-2-carboxylic acid (1-cyano-cyclopropyl)-amide], the half-maximal inhibitory concentration (IC50) against human Cat L stood at 2690 nM; against human Cathepsin S, 6.24 nM.

On to `N#CC1(NC(=O)[C@@H]2C[C@@H](S(=O)(=O)c3ncccc3C(F)(F)F)CN2C(=O)C2(c3ncc(Cl)cc3F)CC2)CC1` [Example 25, (2S,4R)-1-[1-(5-Chloro-3-fluoro-pyridin-2-yl)-cyclopropanecarbonyl]-4-(3-trifluoromethyl-pyridine-2-sulfonyl)-pyrrolidine-2-carboxylic acid (1-cyano-cyclopropyl)-amide], for which the results for the IC50 against human Cat L and at human Cathepsin S were 13200 nM and 3.21 nM, respectively.

`Cn1cc(-c2ccc(S(=O)(=O)[C@@H]3C[C@@H](C(=O)NC4(C#N)CC4)N(C(=O)C4(c5ncc(Cl)cc5F)CC4)C3)c(Cl)c2)cn1` [Example 33, (2S,4R)-1-[1-(5-Chloro-3-fluoro-pyridin-2-yl)-cyclopropanecarbonyl]-4-[2-chloro-4-(1-methyl-1H-pyrazol-4-yl)-benzenesulfonyl]-pyrrolidine-2-carboxylic acid (1-cyano-cyclopropyl)-amide]: the half-inhibitory concentration (IC50) against human Cat L was determined as 28.7 nM; on human Cathepsin S, 0.375 nM.

Turning to `N#CC1(NC(=O)[C@@H]2C[C@@H](S(=O)(=O)c3ccc(OCC(F)(F)F)cc3Cl)CN2C(=O)C2(c3ccc(Cl)cn3)CC2)CC1` [Example 3, (2S,4R)-1-[1-(5-Chloro-pyridin-2-yl)-cyclopropanecarbonyl]-4-[2-chloro-4-(2,2,2-trifluoro-ethoxy)-benzenesulfonyl]-pyrrolidine-2-carboxylic acid (1-cyano-cyclopropyl)-amide], the results for the IC50 against human Cat L and against human Cathepsin S were 429 nM and 0.825 nM, respectively.

As for `Cc1cc(-c2ccc(S(=O)(=O)[C@@H]3C[C@@H](C(=O)NC4(C#N)CC4)N(C(=O)C4(c5ncc(Cl)cc5F)CC4)C3)c(Cl)c2)ccn1` [Example 31, (2S,4R)-1-(1-(5-chloro-3-fluoropyridin-2-yl)cyclopropanecarbonyl)-4-(2-chloro-4-(2-methylpyridin-4-yl)phenylsulfonyl)-N-(1-cyanocyclopropyl)pyrrolidine-2-carboxamide], the results for the IC50 against human Cat L and on human Cathepsin S were 61.6 nM and 0.505 nM, respectively.

In the case of `N#CC1(NC(=O)[C@@H]2C[C@@H](Sc3ccccn3)CN2C(=O)C2(c3ncc(Cl)cc3F)CC2)CC1` [Example 12, (2S,4R)-1-[1-(5-Chloro-3-fluoro-pyridin-2-yl)-cyclopropanecarbonyl]-4-(pyridin-2-ylsulfanyl)-pyrrolidine-2-carboxylic acid (1-cyano-cyclopropyl)-amide], the IC50 is 8230 nM at human Cat L and 594 nM at human Cathepsin S.

As for `Cc1ncccc1-c1ccc(S(=O)(=O)[C@@H]2C[C@@H](C(=O)NC3(C#N)CC3)N(C(=O)C3(c4ncc(C(F)(F)F)cc4F)CC3)C2)c(Cl)c1` [Example 35, (2S,4R)-4-[2-Chloro-4-(2-methyl-pyridin-3-yl)-benzenesulfonyl]-1-[1-(3-fluoro-5-trifluoromethyl-pyridin-2-yl)-cyclopropanecarbonyl]-pyrrolidine-2-carboxylic acid (1-cyano-cyclopropyl)-amide], the results for the IC50 against human Cat L and at human Cathepsin S were 58.9 nM and 0.768 nM, respectively.

Turning to `N#CC1(NC(=O)[C@@H]2C[C@@H](S(=O)(=O)c3cc(C(F)(F)F)ccc3Cl)CN2C(=O)C2(c3ccc(Cl)cn3)CC2)CC1` [Example 29, (2S,4R)-1-[1-(5-Chloro-pyridin-2-yl)-cyclopropanecarbonyl]-4-(2-chloro-5-trifluoromethyl-benzenesulfonyl)-pyrrolidine-2-carboxylic acid (1-cyano-cyclopropyl)-amide], the values for the IC50 at human Cat L and against human Cathepsin S were 362 nM and 0.618 nM, respectively.

For the molecule `N#CC1(NC(=O)[C@@H]2C[C@@H](S(=O)(=O)c3ccc(OCC(F)(F)F)cc3Cl)CN2C(=O)C2(c3ncc(Cl)cc3F)CC2)CC1` [Example 6, (2S,4R)-1-[1-(5-Chloro-3-fluoro-pyridin-2-yl)-cyclopropanecarbonyl]-4-[2-chloro-4-(2,2,2-trifluoro-ethoxy)-benzenesulfonyl]-pyrrolidine-2-carboxylic acid (1-cyano-cyclopropyl)-amide], the IC50 against human Cat L was 44.5 nM; on human Cathepsin S, 0.675 nM.

`Cn1cc(-c2ccc(S(=O)(=O)[C@@H]3C[C@@H](C(=O)NC4(C#N)CC4)N(C(=O)C4(c5ncc(I)cc5F)CC4)C3)c(Cl)c2)cn1` [Example 38, (2S,4R)-4-[2-Chloro-4-(1-methyl-1H-pyrazol-4-yl)-benzenesulfonyl]-1-[1-(3-fluoro-5-iodo-pyridin-2-yl)-cyclopropanecarbonyl]-pyrrolidine-2-carboxylic acid (1-cyano-cyclopropyl)-amide]: the IC50 against human Cat L is 3.2 nM; against human Cathepsin S, 0.678 nM.

Regarding `COc1ccc(S(=O)(=O)[C@@H]2C[C@@H](C(=O)NC3(C#N)CC3)N(C(=O)C3(c4ncc(Cl)cc4F)CC3)C2)c(Cl)c1` [Example 4, (2S,4R)-1-[1-(5-Chloro-3-fluoro-pyridin-2-yl)-cyclopropanecarbonyl]-4-(2-chloro-4-methoxy-benzenesulfonyl)-pyrrolidine-2-carboxylic acid (1-cyano-cyclopropyl)-amide], the results for the half-inhibitory concentration (IC50) at human Cat L and at human Cathepsin S were 11.9 nM and 0.393 nM, respectively.

As to `N#CC1(NC(=O)[C@@H]2C[C@@H](S(=O)(=O)c3ccc(F)cc3Cl)CN2C(=O)C2(c3ncc(Cl)cc3F)CC2)CC1` [Example 11, (2S,4R)-1-(1-(5-chloro-3-fluoropyridin-2-yl)cyclopropanecarbonyl)-4-(2-chloro-4-fluorophenylsulfonyl)-N-(1-cyanocyclopropyl)pyrrolidine-2-carboxamide], the concentration for half-maximal inhibition (IC50) against human Cat L worked out at 89.8 nM; against human Cathepsin S, 0.602 nM.

`N#CC1(NC(=O)[C@@H]2C[C@@H](S(=O)(=O)c3ccccc3Cl)CN2C(=O)C2(c3ccc(Cl)cn3)CC2)CC1` [Example 2, (2S,4R)-4-(2-Chloro-benzenesulfonyl)-1-[1-(5-chloro-pyridin-2-yl)-cyclopropanecarbonyl]-pyrrolidine-2-carboxylic acid (1-cyano-cyclopropyl)-amide]: the half-maximal inhibitory concentration (IC50) worked out at 340 nM on human Cat L and 0.492 nM at human Cathepsin S.

For the molecule `N#CC1(NC(=O)[C@@H]2C[C@@H](S(=O)(=O)c3ccccc3-n3ccnn3)CN2C(=O)C2(c3ncc(Cl)cc3F)CC2)CC1` [Example 47, (2S,4R)-1-[1-(5-Chloro-3-fluoro-pyridin-2-yl)-cyclopropanecarbonyl]-4-(2-[1,2,3]triazol-1-yl-benzenesulfonyl)-pyrrolidine-2-carboxylic acid (1-cyano-cyclopropyl)-amide], the IC50 came out at 35200 nM against human Cat L and 4.27 nM against human Cathepsin S.

Broadly, the IC50 is the midpoint of a concentration-inhibition curve.
